Data reported in patent US7795456B2, “Insecticidal N-substituted sulfoximines” (Dow AgroSciences LLC, priority 2004, dated 2010).

Assays:
[1] = tested on: cotton aphid (Aphis gossypii); experiment: Insecticidal test for cotton aphid, foliar spray on squash; settings: for pest or weed control at 50 ppm / pest or weed control at 200 ppm: Aphis gossypii, foliar, 72 h; for pest or weed control at 50 ppm: read-out: CA 50: % control at 50 ppm against cotton aphid in foliar spray tests; for pest or weed control at 200 ppm: read-out: CA 200: % control at 200 ppm against cotton aphid in foliar spray tests
[2] = tested on: fruit fly (Drosophila melanogaster); settings: for FF 25: % mortality at 25 μg/cm2 against fruit fly in dietary tests: 25 μg/cm2, 48 h; for FF SYM: % showing intoxicated symptoms at 25 μg/cm2 against fruit fly in dietary tests: 25 μg/cm2, 4 h
[3] = tested on: corn earworm (Helicoverpa zea); settings: 50 μg/cm2, second-instar larvae, 5 days
[4] = tested on: beet armyworm (Spodoptera exigua); settings: 50 μg/cm2, second-instar larvae, 5 days
[5] = tested on: beet armyworm (Spodoptera exigua); experiment: Insecticidal test for beet armyworm in injection assays; settings: 1 h, read-out: BAW SYM: % showing intoxicated symptoms at 10 μg/larva against beet armyworm in injection tests
[6] = tested on: sweet potato whitefly (Bemisia tabaci); experiment: Insecticidal test for sweet potato whitefly, foliar spray on cotton; settings: Bemisia tabaci, in Gossypium hirsutum, foliar, read-out: SPW 200: % control at 200 ppm against sweet potato whitefly in foliar spray tests
[7] = tested on: green peach aphid (Myzus persicae); experiment: Insecticidal test for green peach aphid, foliar spray on cabbage seedlings; settings: rundown assay, 3 days

CC(Cc1ccc(Cl)nc1)CS(C)(=O)=NC#N (stereo not drawn) [Compound 2, [3-(6-Chloropyridin-3-yl)-2-methylpropyl](methyl)oxido-λ^4-sulfanylidenecyanamide]
pest or weed control at 50 ppm [1]: 80 to 89% | pest or weed control at 200 ppm [1]: 90 to 100% | FF 25: % mortality at 25 μg/cm2 against fruit fly in dietary tests [2]: G (Inactive) | CEW 50: % mortality at 50 μg/cm2 against corn earworm in dietary tests [3]: G (Inactive) | BAW 50: % mortality at 50 μg/cm2 against beet armyworm in dietary tests [4]: G (Inactive)

CC(Cc1ccc(Cl)nc1)CS(C)(=O)=N[N+](=O)[O-] (stereo not drawn) [Compound 3, 2-chloro-5-(2-methyl-3-{methyl(oxido)[oxido-(oxo)hydrazono]-λ^4-sulfanyl}propyl)pyridine]
pest or weed control at 200 ppm [1]: 80 to 89% | FF 25: % mortality at 25 μg/cm2 against fruit fly in dietary tests [2]: G (Inactive) | CEW 50: % mortality at 50 μg/cm2 against corn earworm in dietary tests [3]: G (Inactive) | BAW 50: % mortality at 50 μg/cm2 against beet armyworm in dietary tests [4]: G (Inactive)

CC(CS(C)(=O)=N[N+](=O)[O-])c1ccc(Cl)nc1 (stereo not drawn) [Compound 4, 2-Chloro-5-(1-methyl-2-{methyl(oxido)[oxido(oxo)hydrazono]-λ^4-sulfanyl}ethyl)pyridine]
pest or weed control at 200 ppm [1]: < 50% | pest or weed control at 0.01 mg [5]: < 50% | FF 25: % mortality at 25 μg/cm2 against fruit fly in dietary tests [2]: G (Inactive) | CEW 50: % mortality at 50 μg/cm2 against corn earworm in dietary tests [3]: G (Inactive) | BAW 50: % mortality at 50 μg/cm2 against beet armyworm in dietary tests [4]: G (Inactive)

N#CN=S1(=O)CCCCC1 [Compound 6, 1-Oxidohexahydro-1λ^4-thiopyran-1-ylidenecyanamide]
FF 25: % mortality at 25 μg/cm2 against fruit fly in dietary tests [2]: G (Inactive) | CEW 50: % mortality at 50 μg/cm2 against corn earworm in dietary tests [3]: G (Inactive) | BAW 50: % mortality at 50 μg/cm2 against beet armyworm in dietary tests [4]: G (Inactive)

COC(=O)N=S1(=O)CCCC1Cc1ccc(Cl)nc1 (stereo not drawn) [Compound 7, methyl 2-[(6-chloropyridin-3-yl)methyl]-1-oxidotetrahydro-1H-1λ^4-thien-1-ylidenecarbamate]
pest or weed control at 200 ppm [1]: 80 to 89% | FF 25: % mortality at 25 μg/cm2 against fruit fly in dietary tests [2]: G (Inactive) | CEW 50: % mortality at 50 μg/cm2 against corn earworm in dietary tests [3]: G (Inactive) | BAW 50: % mortality at 50 μg/cm2 against beet armyworm in dietary tests [4]: G (Inactive)

CC(CS(C)(=O)=NC#N)c1ccc(Cl)nc1 (stereo not drawn) [Compound 15]
pest or weed control at 50 ppm [1]: 80 to 89% | pest or weed control at 200 ppm [1]: 90 to 100% | FF 25: % mortality at 25 μg/cm2 against fruit fly in dietary tests [2]: G (Inactive) | CEW 50: % mortality at 50 μg/cm2 against corn earworm in dietary tests [3]: G (Inactive) | BAW 50: % mortality at 50 μg/cm2 against beet armyworm in dietary tests [4]: G (Inactive)

CC[S@@](=O)(C[C@H](C)c1ccc(Cl)nc1)=NC#N [Compound 16]
pest or weed control at 50 ppm [1]: 90 to 100% | pest or weed control at 200 ppm [1]: 90 to 100% | pest or weed control at 0.01 mg [5]: < 50% | FF 25: % mortality at 25 μg/cm2 against fruit fly in dietary tests [2]: G (Inactive) | CEW 50: % mortality at 50 μg/cm2 against corn earworm in dietary tests [3]: G (Inactive) | BAW 50: % mortality at 50 μg/cm2 against beet armyworm in dietary tests [4]: G (Inactive)

CC[S@@](=O)(C[C@@H](C)c1ccc(Cl)nc1)=NC#N [Compound 17]
pest or weed control at 50 ppm [1]: 90 to 100% | pest or weed control at 200 ppm [1]: 90 to 100% | FF 25: % mortality at 25 μg/cm2 against fruit fly in dietary tests [2]: G (Inactive) | CEW 50: % mortality at 50 μg/cm2 against corn earworm in dietary tests [3]: G (Inactive) | BAW 50: % mortality at 50 μg/cm2 against beet armyworm in dietary tests [4]: G (Inactive)

CC[S@](=O)(=NC#N)[C@@H](C)c1ccc(Cl)nc1 [Compound 19]
pest or weed control at 50 ppm [1]: 90 to 100% | pest or weed control at 200 ppm [1]: 90 to 100% | pest or weed control at 200 ppm [6]: 70 to 79% | FF 25: % mortality at 25 μg/cm2 against fruit fly in dietary tests [2]: F (Less than 50) | CEW 50: % mortality at 50 μg/cm2 against corn earworm in dietary tests [3]: G (Inactive) | BAW 50: % mortality at 50 μg/cm2 against beet armyworm in dietary tests [4]: G (Inactive)

N#CN=S1(=O)CCCC1c1ccccc1 (stereo not drawn) [Compound 22, (1-oxido-2-phenyltetrahydro-1H-11^4-thien-1-ylidene)cyanamide]
pest or weed control at 50 ppm [1]: 80 to 89% | pest or weed control at 200 ppm [1]: 90 to 100% | pest or weed control at 0.01 mg [5]: < 50% | FF 25: % mortality at 25 μg/cm2 against fruit fly in dietary tests [2]: G (Inactive) | CEW 50: % mortality at 50 μg/cm2 against corn earworm in dietary tests [3]: G (Inactive) | BAW 50: % mortality at 50 μg/cm2 against beet armyworm in dietary tests [4]: G (Inactive)

Cc1ccc(CC2CCCS2(=O)=NC#N)cn1 (stereo not drawn) [Compound 30]
pest or weed control at 50 ppm [1]: 90 to 100% | pest or weed control at 200 ppm [1]: 90 to 100% | FF 25: % mortality at 25 μg/cm2 against fruit fly in dietary tests [2]: G (Inactive) | CEW 50: % mortality at 50 μg/cm2 against corn earworm in dietary tests [3]: G (Inactive) | BAW 50: % mortality at 50 μg/cm2 against beet armyworm in dietary tests [4]: G (Inactive)

CC(C)[C@H]1CCCS1(=O)=NC#N (stereo partly drawn) [Compound 31]
pest or weed control at 200 ppm [1]: 90 to 100% | FF 25: % mortality at 25 μg/cm2 against fruit fly in dietary tests [2]: G (Inactive) | CEW 50: % mortality at 50 μg/cm2 against corn earworm in dietary tests [3]: G (Inactive) | BAW 50: % mortality at 50 μg/cm2 against beet armyworm in dietary tests [4]: G (Inactive)

CC(C)C1CCCS1(=O)=NC#N (stereo not drawn) [Compound 32]
pest or weed control at 200 ppm [1]: 80 to 89% | pest or weed control at 0.01 mg [5]: 50 to 59% | FF 25: % mortality at 25 μg/cm2 against fruit fly in dietary tests [2]: G (Inactive) | CEW 50: % mortality at 50 μg/cm2 against corn earworm in dietary tests [3]: G (Inactive) | BAW 50: % mortality at 50 μg/cm2 against beet armyworm in dietary tests [4]: G (Inactive)

CS(=O)(Cc1ccc(Cl)nc1)=N[N+](=O)[O-] (stereo not drawn) [Compound 33]
pest or weed control at 50 ppm [1]: 90 to 100% | pest or weed control at 200 ppm [1]: 90 to 100% | FF SYM: % showing intoxicated symptoms at 25 μg/cm2 against fruit fly in dietary tests [2]: F (Less than 50) | FF 25: % mortality at 25 μg/cm2 against fruit fly in dietary tests [2]: F (Less than 50) | CEW 50: % mortality at 50 μg/cm2 against corn earworm in dietary tests [3]: G (Inactive) | BAW 50: % mortality at 50 μg/cm2 against beet armyworm in dietary tests [4]: G (Inactive)

CC(c1ccc(Cl)nc1)S(C)(=O)=N[N+](=O)[O-] (stereo not drawn) [Compound 36]
% Control at ppm, against cotton aphid: 0.049 ([1]; 0.049 ppm, rundown assay): F (Less than 50) | % Control at ppm, against cotton aphid: 0.195 ([1]; 0.195 ppm, rundown assay): F (Less than 50) | % Control at ppm, against cotton aphid: 0.78 ([1]; 0.78 ppm, rundown assay): C (70-79) | % Control at ppm, against cotton aphid: 3.12 ([1]; 3.12 ppm, rundown assay): A (90-100) | % Control at ppm, against cotton aphid: 12.5 ([1]; 12.5 ppm, rundown assay): A (90-100) | % Control at ppm, against cotton aphid: 50 ([1]; 50 ppm, rundown assay): A (90-100) | pest or weed control at 50 ppm [1]: 90 to 100% | pest or weed control at 200 ppm [1]: 90 to 100% | % Control at ppm, against green peach aphid: 0.049 ([7]; 0.049 ppm): F (Less than 50) | % Control at ppm, against green peach aphid: 0.195 ([7]; 0.195 ppm): E (50-59) | % Control at ppm, against green peach aphid: 0.78 ([7]; 0.78 ppm): D (60-69) | % Control at ppm, against green peach aphid: 3.12 ([7]; 3.12 ppm): C (70-79) | % Control at ppm, against green peach aphid: 12.5 ([7]; 12.5 ppm): A (90-100) | % Control at ppm, against green peach aphid: 50 ([7]; 50 ppm): A (90-100) | FF SYM: % showing intoxicated symptoms at 25 μg/cm2 against fruit fly in dietary tests [2]: F (Less than 50) | FF 25: % mortality at 25 μg/cm2 against fruit fly in dietary tests [2]: F (Less than 50) | CEW 50: % mortality at 50 μg/cm2 against corn earworm in dietary tests [3]: G (Inactive) | BAW 50: % mortality at 50 μg/cm2 against beet armyworm in dietary tests [4]: G (Inactive)

CS(=O)(CCc1ccc(Cl)nc1)=N[N+](=O)[O-] (stereo not drawn) [Compound 37]
pest or weed control at 50 ppm [1]: 90 to 100% | pest or weed control at 200 ppm [1]: 90 to 100% | FF 25: % mortality at 25 μg/cm2 against fruit fly in dietary tests [2]: G (Inactive) | CEW 50: % mortality at 50 μg/cm2 against corn earworm in dietary tests [3]: G (Inactive) | BAW 50: % mortality at 50 μg/cm2 against beet armyworm in dietary tests [4]: G (Inactive)

CC[S@](=O)(=N[N+](=O)[O-])[C@H](C)c1ccc(Cl)nc1 [Compound 39]
pest or weed control at 200 ppm [1]: 90 to 100% | FF 25: % mortality at 25 μg/cm2 against fruit fly in dietary tests [2]: F (Less than 50) | CEW 50: % mortality at 50 μg/cm2 against corn earworm in dietary tests [3]: G (Inactive) | BAW 50: % mortality at 50 μg/cm2 against beet armyworm in dietary tests [4]: G (Inactive)

CC[S@](=O)(=N[N+](=O)[O-])[C@@H](C)c1ccc(Cl)nc1 [Compound 40]
pest or weed control at 200 ppm [1]: 80 to 89% | FF 25: % mortality at 25 μg/cm2 against fruit fly in dietary tests [2]: G (Inactive) | CEW 50: % mortality at 50 μg/cm2 against corn earworm in dietary tests [3]: G (Inactive) | BAW 50: % mortality at 50 μg/cm2 against beet armyworm in dietary tests [4]: G (Inactive)

CCOc1ccc(S(C)(=O)=NC#N)cn1 (stereo not drawn) [Compound 42, (6-Ethoxypyridin-3-yl)(methyl)oxido-λ^4-sulfanylidenecyanamide]
pest or weed control at 50 ppm [1]: 70 to 79% | pest or weed control at 200 ppm [1]: 90 to 100% | FF 25: % mortality at 25 μg/cm2 against fruit fly in dietary tests [2]: G (Inactive) | CEW 50: % mortality at 50 μg/cm2 against corn earworm in dietary tests [3]: G (Inactive) | BAW 50: % mortality at 50 μg/cm2 against beet armyworm in dietary tests [4]: G (Inactive)
